According to PubChem BioAssay AID330 (DTP/NCI, 2004):
Values joined by “and” are separate entries in the source; they are usually repeats but may differ in a detail not shown here. Equal entries are not always repeated. Inconclusive results and toxic doses are left out. Rule for the calls: active = survival T/C of 150% or more; inactive = T/C below 125% in these data.

Tested on: P388 leukemia ip, CD2F1 mice, survival T/C
Test: NCI In Vivo Anticancer Drug Screen. Data for tumor model P388 Leukemia (intraperitoneal) in CD2F1 (CDF1) mice
Settings: endpoint: median survival time, higher = longer survival
Method in brief: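 Mice carrying the transplanted tumor received test compound or vehicle. Survival was recorded in each group, and the value is the treated-group measurement divided by that of the vehicle-treated control group.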

[1] = dose: 25.0 mg/kg/injection, schedule: Q01DX009 (ip), vehicle: saline
[2] = dose: 50.0 mg/kg/injection, schedule: Q01DX009 (ip), vehicle: saline
[3] = dose: 100.0 mg/kg/injection, schedule: Q01DX009 (ip), vehicle: saline
[4] = dose: 60.0 mg/kg/injection, schedule: Q01DX005 (ip), vehicle: Klucel (hydroxypropylcellulose) (HPC)
[5] = dose: 120.0 mg/kg/injection, schedule: Q01DX005 (ip), vehicle: Klucel (hydroxypropylcellulose) (HPC)
[6] = dose: 240.0 mg/kg/injection, schedule: Q01DX005 (ip), vehicle: Klucel (hydroxypropylcellulose) (HPC)
[7] = dose: 50.0 mg/kg/injection, schedule: Q01DX009 (ip), vehicle: Klucel (hydroxypropylcellulose) (HPC)
[8] = dose: 200.0 mg/kg/injection, schedule: Q01DX009 (ip), vehicle: Klucel (hydroxypropylcellulose) (HPC)
[9] = dose: 50.0 mg/kg/injection, schedule: Q01DX005 (ip), vehicle: saline with Tween-80
[10] = dose: 100.0 mg/kg/injection, schedule: Q01DX005 (ip), vehicle: saline with Tween-80
[11] = dose: 200.0 mg/kg/injection, schedule: Q01DX005 (ip), vehicle: saline with Tween-80
[12] = dose: 12.5 mg/kg/injection, schedule: Q01DX009 (ip), vehicle: Klucel (hydroxypropylcellulose) (HPC)
[13] = dose: 60.0 mg/kg/injection, schedule: Q01DX005 (ip), vehicle: saline with Tween-80
[14] = dose: 120.0 mg/kg/injection, schedule: Q01DX005 (ip), vehicle: saline with Tween-80

Measured: T/C

C=C1C(=O)O[C@H]2[C@H]1[C@@H](OC(=O)C=C(C)C)CC1=C[C@@H](C[C@@]3(C)O[C@@H]23)OC1=O
inactive: dose: 12.5 mg/kg/injection, schedule: Q01DX009 (ip), vehicle: saline 92 % of control | [1] 100 % of control | [2] 99 % of control | [3] 101 % of control

COc1nncc(-c2cnnc(OC)n2)n1
inactive: dose: 3.13 mg/kg/injection, schedule: Q01DX009 (ip), vehicle: saline with Tween-80 105 % of control | dose: 6.25 mg/kg/injection, schedule: Q01DX009 (ip), vehicle: saline with Tween-80 100 % of control | dose: 12.5 mg/kg/injection, schedule: Q01DX009 (ip), vehicle: saline with Tween-80 102 % of control

CC(O)COc1ccccc1P(c1ccccc1)c1ccccc1 (configuration not stated)
inactive: dose: 25.0 mg/kg/injection, schedule: Q01DX005 (ip), vehicle: Klucel (hydroxypropylcellulose) (HPC) 104 % of control and 95 % of control | dose: 50.0 mg/kg/injection, schedule: Q01DX005 (ip), vehicle: Klucel (hydroxypropylcellulose) (HPC) 104 % of control and 109 % of control and 97 % of control | dose: 100.0 mg/kg/injection, schedule: Q01DX005 (ip), vehicle: Klucel (hydroxypropylcellulose) (HPC) 101 % of control and 109 % of control and 91 % of control | dose: 200.0 mg/kg/injection, schedule: Q01DX005 (ip), vehicle: Klucel (hydroxypropylcellulose) (HPC) 104 % of control and 92 % of control

C[N+]1=CN(S(=O)(=O)C2C=CC=CC=C2)C(C)(C)C1(C)C
inactive: dose: 100.0 mg/kg/injection, schedule: Q04DX003 (ip), vehicle: saline 103 % of control | dose: 200.0 mg/kg/injection, schedule: Q04DX003 (ip), vehicle: saline 103 % of control | dose: 400.0 mg/kg/injection, schedule: Q04DX003 (ip), vehicle: saline 99 % of control

CCc1c(C(=O)OC)c(C(=O)OC)c(-c2ccc(C)cc2)n1CCn1c(CC)c(C(=O)OC)c(C(=O)OC)c1-c1ccc(C)cc1
inactive: [4] 96 % of control | [5] 101 % of control | [6] 92 % of control

NC(CCl)=NCCOC12CC3CC(CC(C3)C1)C2
inactive: dose: 15.0 mg/kg/injection, schedule: Q01DX005 (ip), vehicle: saline 103 % of control | dose: 30.0 mg/kg/injection, schedule: Q01DX005 (ip), vehicle: saline 103 % of control | dose: 60.0 mg/kg/injection, schedule: Q01DX005 (ip), vehicle: saline 106 % of control and 98 % of control

Cc1cc(=O)n2c(nc3ccccc32)o1
inactive: [4] 104 % of control | [5] 104 % of control | [6] 99 % of control

CC(C)(C)SC#CC(Sc1ccccc1)=C(Sc1ccccc1)Sc1ccccc1
inactive: dose: 100.0 mg/kg/injection, schedule: Q04DX003 (ip), vehicle: saline with Tween-80 100 % of control | dose: 200.0 mg/kg/injection, schedule: Q04DX003 (ip), vehicle: saline with Tween-80 100 % of control | dose: 400.0 mg/kg/injection, schedule: Q04DX003 (ip), vehicle: saline with Tween-80 100 % of control

CC1=C/N\C(C#N)=C(C#N)/N=C/C(C)=C\N\C(C#N)=C(C#N)/N=C\1
inactive: [7] 92 % of control | dose: 100.0 mg/kg/injection, schedule: Q01DX009 (ip), vehicle: Klucel (hydroxypropylcellulose) (HPC) 105 % of control | [8] 98 % of control

CC1(c2ccccc2)COC(=O)O/C1=N/OCc1ccccc1 (configuration not stated)
inactive: [9] 100 % of control | [10] 107 % of control | [11] 99 % of control

O=c1c(F)cn(-c2ccco2)c(=O)n1-c1ccco1
inactive: dose: 37.5 mg/kg/injection, schedule: Q04DX003 (ip), vehicle: saline + alcohol 103 % of control | dose: 75.0 mg/kg/injection, schedule: Q04DX003 (ip), vehicle: saline + alcohol 100 % of control | dose: 150.0 mg/kg/injection, schedule: Q04DX003 (ip), vehicle: saline + alcohol 96 % of control

Cc1cc(N2C(=O)CCSC2=S)ccc1Cl
inactive: [12] 120 % of control | dose: 25.0 mg/kg/injection, schedule: Q01DX009 (ip), vehicle: Klucel (hydroxypropylcellulose) (HPC) 119 % of control | [7] 109 % of control and 114 % of control | dose: 50.0 mg/kg/injection, schedule: Q01DX009 (ip), vehicle: suspension in saline 97 % of control | dose: 100.0 mg/kg/injection, schedule: Q01DX009 (ip), vehicle: suspension in saline 90 % of control | [8] 102 % of control | dose: 200.0 mg/kg/injection, schedule: Q01DX009 (ip), vehicle: suspension in saline 92 % of control

O=C(N/N=C/c1ccc(O)c(O)c1)c1ccccc1
inactive: [9] 109 % of control | [10] 118 % of control | [11] 119 % of control

O=C(NC(=O)c1c(F)cccc1F)Nc1cccc(Oc2ncc(Cl)cn2)c1
inactive: dose: 15.0 mg/kg/injection, schedule: Q01DX005 (ip), vehicle: saline with Tween-80 111 % of control | dose: 30.0 mg/kg/injection, schedule: Q01DX005 (ip), vehicle: saline with Tween-80 96 % of control | [13] 94 % of control and 95 % of control

Clc1ccccc1-n1cccc1/C=N\N=C/c1cccn1-c1ccccc1Cl
inactive: [9] 107 % of control | [10] 110 % of control and 86 % of control | [11] 121 % of control and 86 % of control and 90 % of control

CCC[P+](C)(CCC#N)c1ccccc1 (configuration not stated)
inactive: [12] 108 % of control

C(=C\c1cccs1)/c1ccnnc1
inactive: [1] 101 % of control | [2] 99 % of control | [3] 86 % of control and 96 % of control

CN=C(N)N/N=C(\c1ccccc1)c1cc(Cl)c(O)c(Cl)c1
inactive: dose: 25.0 mg/kg/injection, schedule: Q04DX002 (ip), vehicle: saline with Tween-80 101 % of control | dose: 50.0 mg/kg/injection, schedule: Q04DX002 (ip), vehicle: saline with Tween-80 100 % of control | dose: 100.0 mg/kg/injection, schedule: Q04DX002 (ip), vehicle: saline with Tween-80 100 % of control | dose: 200.0 mg/kg/injection, schedule: Q04DX002 (ip), vehicle: saline with Tween-80 104 % of control | dose: 400.0 mg/kg/injection, schedule: Q04DX002 (ip), vehicle: saline with Tween-80 103 % of control

Cc1ccc(S(=O)(=O)N/N=C/c2cc(I)cc(I)c2O)cc1
inactive: [9] 98 % of control | [10] 100 % of control | [11] 100 % of control

Cc1cc([N+](=O)[O-])c(C)cc1Cl
inactive: dose: 37.5 mg/kg/injection, schedule: Q04DX003 (ip), vehicle: saline sonified 118 % of control | dose: 75.0 mg/kg/injection, schedule: Q04DX003 (ip), vehicle: saline sonified 100 % of control | dose: 150.0 mg/kg/injection, schedule: Q04DX003 (ip), vehicle: saline sonified 118 % of control

COc1ccc(NC(=O)CCC(=O)O)cc1
inactive: dose: 100.0 mg/kg/injection, schedule: Q01DX009 (ip), vehicle: saline with Tween-80 95 % of control | dose: 200.0 mg/kg/injection, schedule: Q01DX009 (ip), vehicle: saline with Tween-80 95 % of control | dose: 400.0 mg/kg/injection, schedule: Q01DX009 (ip), vehicle: saline with Tween-80 91 % of control

Cc1nc(N)[nH]c(=O)c1CCCNC(=O)c1cccc([N+](=O)[O-])c1
inactive: [13] 94 % of control | [14] 100 % of control | dose: 240.0 mg/kg/injection, schedule: Q01DX005 (ip), vehicle: saline with Tween-80 103 % of control

CN1C(=O)n2c(nc3ccccc32)C(Cl)(Cl)C1=O
inactive: [13] 104 % of control | [14] 98 % of control

CCOC(=O)CC1=NC(=Nc2ccc(Cl)c(Cl)c2)SC1
inactive: [9] 103 % of control | [10] 104 % of control | [11] 100 % of control
